Values quoted from earlier work as cited in patent US8231899B2, “Quick release pharmaceutical compositions of drug substances” (Nycomed Danmark ApS, priority 1998, dated 2012).

What was measured:
[1] = room temperature

Structure (SMILES) | solubility in water and 0.1 N HCl [1] | pKa value | solubility at a pH corresponding to 0.1 N HCl [1]
CC(=O)Oc1ccccc1C(=O)O [acetylsalicylic acid] | practically insoluble | – | –
COc1ccc2c(c1)c(CC(=O)O)c(C)n2C(=O)c1ccc(Cl)cc1 [indometacin] | practically insoluble | – | –
CN1C(C(=O)Nc2ccccn2)=C(O)c2sc(Cl)cc2S1(=O)=O [lornoxicam] | – | about 4.7 | less than 1 mg 100 ml
